According to PMC2932859 (Journal of medicinal chemistry, 2010):
Entries after “also recorded” stand apart in the source; their conditions may differ.

Experiments:
TgENR = biological target: T1, TgENR (Toxoplasma gondii, UniProt Q6UCJ9); assay: TgENR inhibitor assay; assay type: biochemical; settings: for Inhibition of TgENR, in words: recombinant TgENR enzyme assay
T1 sequence (Q6UCJ9 28-417): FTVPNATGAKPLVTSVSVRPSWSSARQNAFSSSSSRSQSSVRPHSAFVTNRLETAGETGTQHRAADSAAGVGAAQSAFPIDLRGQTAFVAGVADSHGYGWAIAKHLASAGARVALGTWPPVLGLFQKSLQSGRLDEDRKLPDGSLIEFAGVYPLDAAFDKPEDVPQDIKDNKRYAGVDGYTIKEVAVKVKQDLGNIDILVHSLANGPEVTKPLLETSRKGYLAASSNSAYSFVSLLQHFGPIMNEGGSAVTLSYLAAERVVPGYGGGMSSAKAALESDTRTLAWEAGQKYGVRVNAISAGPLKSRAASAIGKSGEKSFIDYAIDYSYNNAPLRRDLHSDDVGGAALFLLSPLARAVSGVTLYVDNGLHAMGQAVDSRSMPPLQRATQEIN

[1] = tested on: tachyzoites of RH strain of T. gondii; assay: Inhibition of T. gondii tachyzoites in vitro; assay type: cell-based, Toxoplasma gondii; settings: uptake of tritiated uracil
[2] = tested on: human foreskin fibroblasts (HFF); assay: Toxicity for host cells; assay type: cell-based; settings: uptake of 3H thymidine by nonconfluent HFF
[3] = tested on: T. gondii (RH strain, Type 1); assay: Testing of inhibitors in vivo, acute parenteral infection of mice; parameters: species or system Toxoplasma gondii; settings: for Parasite burden in mice: CD1 mice infected intraperitoneally with 2000 T. gondii, inhibitors intraperitoneally at 10mg/kg, peritoneal cavity, day 5 post-infection, P<0.05; for Efficacy in protecting mice against parasite burden relative to triclosan: higher than triclosan itself
P. falciparum ENR = settings: read-out: IC50 against P. falciparum ENR; cited from earlier work
[4] = Human liver microsomal stability; assay type: in vitro ADME; settings: compared with control drug verapamil
S. aureus ENR = settings: cited from earlier work
E. coli ENR = settings: cited from earlier work
[5] = earlier studies; cited from earlier work

Row | Compound | Effect on T. gondii tachyzoites in tissue culture, in words [1] | Toxicity to fibroblasts, in words [2] | Inhibition of TgENR, in words (TgENR) | also measured
1 | Oc1cc(Cl)ccc1Oc1ccc(-c2ccccc2)cc1 [Compound 6] | – | – | – | IC50 (TgENR): > 2000 nM
2 | C/C=C/C=C/C(=O)Nc1ccc(Oc2ccc(Cl)cc2O)cc1 [Compound 25, Hexa-2,4-dienoic acid (4-(4-chloro-2-hydroxyphenoxy)-phenyl)amide] | lack of inhibition | toxic | – | –
3 | CCCc1ccc(Oc2cccc(B(O)O)c2)c(O)c1 [Compound 20, 3-(2-Hydroxy-4-propylphenoxy)phenyl boronic acid] | – | – | very effective inhibitor | –
4 | O=c1cc(OCc2ccccc2)ccn1Cc1ccc([N+](=O)[O-])cc1Cl [Compound 39] | inhibition of T. gondii tachyzoites | lack of inhibition of fibroblast growth | low micro molar; also recorded: poor inhibitor | –
5 | Oc1cc(Cl)ccc1Oc1cccnc1 [Compound 17] | – | – | some activity | –
6 | O=[N+]([O-])c1ccc(Oc2ccc(Cl)cc2O)c(Cl)c1 [Compound 2] | inhibition of T. gondii tachyzoites | lack of inhibition of fibroblast growth | highly active | Parasite burden in mice [3]: reduce parasite burden; Efficacy in protecting mice against parasite burden relative to triclosan [3]: approximately 5 times; IC50 (P. falciparum ENR): 200 nM; IC50 (TgENR): 45 nM; Intrinsic clearance, metabolic rate in HLM, in words [4]: slower than the control drug verapamil
7 | Oc1cc(Cl)ccc1Oc1cnccn1 [Compound 18] | – | – | no activity | –
8 | CN(Cc1cc2ccccc2n1C)C(=O)/C=C/c1ccc(N)nc1 [Compound 50] | – | – | moderate activity | Activity against S. aureus ENR, in words (S. aureus ENR): very effective; Activity against E. coli ENR, in words (E. coli ENR): very effective
9 | Oc1cc(Cl)ccc1Oc1ccc(Cl)cc1Cl [Triclosan] | – | – | – | Safety in mice, in words [5]: safe
10 | CCCc1ccc(Oc2ccc(C#N)cc2Cl)c(O)c1 [Compound 19] | inhibition of T. gondii tachyzoites; also recorded: efficacious | lack of inhibition of fibroblast growth; also recorded: not toxic | – | Parasite burden in mice [3]: reduce parasite burden; Efficacy in protecting mice against parasite burden relative to triclosan [3]: approximately 5 times; Intrinsic clearance, metabolic rate in HLM, in words [4]: slower than the control drug verapamil
